Assay results taken from PubChem BioAssay AID248 (DTP/NCI, 2004).
“And” between values parts separate entries of the source, which are not always exact repeats. Equal entries are not always repeated. Toxic doses and inconclusive results are not listed.

System: L1210 leukemia ip in BDF1 mice, survival T/C
Experiment: NCI In Vivo Anticancer Drug Screen. Data for tumor model L1210 Leukemia (intraperitoneal) in B6D2F1 (BDF1) mice
Details: higher = longer survival
In short: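 Mice bearing the transplanted tumor received compound or vehicle. Survival of the treated group was divided by that of the vehicle-treated control group to give the ratio.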

CC(=O)Nc1ccc2c(Nc3ccc(NS(C)(=O)=O)cc3)c3ccccc3nc2c1
T/C (endpoint: mean survival time, dose: 0.8 mg/kg/injection, schedule: Q01DX009 (ip), vehicle: Klucel (hydroxypropylcellulose) (HPC)): 151 % of control | T/C (endpoint: mean survival time, dose: 1.5 mg/kg/injection, schedule: Q01DX009 (sc), vehicle: saline): 156 % of control | T/C (endpoint: mean survival time, dose: 1.6 mg/kg/injection, schedule: Q01DX009 (ip), vehicle: Klucel (hydroxypropylcellulose) (HPC)): 159 % of control | T/C (endpoint: mean survival time, dose: 3.1 mg/kg/injection, schedule: Q01DX009 (ip), vehicle: Klucel (hydroxypropylcellulose) (HPC)): 180 % of control | T/C (endpoint: mean survival time, dose: 5.4 mg/kg/injection, schedule: Q01DX009 (ip), vehicle: saline with Tween-80): 228 % of control | T/C (endpoint: mean survival time, dose: 6.25 mg/kg/injection, schedule: Q01DX009 (ip), vehicle: Klucel (hydroxypropylcellulose) (HPC)): 281 % of control | T/C (endpoint: mean survival time, dose: 8.0 mg/kg/injection, schedule: Q01DX009 (ip), vehicle: saline with Tween-80): 176 % of control | T/C (endpoint: mean survival time, dose: 12.0 mg/kg/injection, schedule: Q01DX009 (ip), vehicle: saline with Tween-80): 171 % of control | T/C (endpoint: mean survival time, dose: 12.5 mg/kg/injection, schedule: Q01DX009 (ip), vehicle: saline with Tween-80): 165 % of control | T/C (endpoint: mean survival time, dose: 12.5 mg/kg/injection, schedule: Q01DX009 (sc), vehicle: saline): 152 % of control | T/C (endpoint: mean survival time, dose: 18.0 mg/kg/injection, schedule: Q01DX009 (ip), vehicle: saline with Tween-80): 93 % of control | T/C (endpoint: mean survival time, dose: 25.0 mg/kg/injection, schedule: Q01DX009 (ip), vehicle: Klucel (hydroxypropylcellulose) (HPC)): 93 % of control

CC(=C1C2CCC1C(C(=O)N(C)C)C2C(=O)N(C)C)C(Cl)(Cl)Cl (configuration not stated)
T/C (endpoint: mean survival time, dose: 100.0 mg/kg/injection, schedule: Q04DX002 (ip), vehicle: Klucel (hydroxypropylcellulose) (HPC)): 94 % of control | T/C (endpoint: mean survival time, dose: 200.0 mg/kg/injection, schedule: Q04DX002 (ip), vehicle: Klucel (hydroxypropylcellulose) (HPC)): 110 % of control | T/C (endpoint: mean survival time, dose: 400.0 mg/kg/injection, schedule: Q04DX002 (ip), vehicle: Klucel (hydroxypropylcellulose) (HPC)): 90 % of control

CCS(=O)(=O)CC(C)O (configuration not stated)
T/C (endpoint: mean survival time, dose: 100.0 mg/kg/injection, schedule: Q01DX009 (ip), vehicle: saline): 90 % of control | T/C (endpoint: mean survival time, dose: 100.0 mg/kg/injection, schedule: Q04DX002 (ip), vehicle: saline): 101 % of control | T/C (endpoint: mean survival time, dose: 200.0 mg/kg/injection, schedule: Q01DX009 (ip), vehicle: saline): 93 % of control | T/C (endpoint: mean survival time, dose: 400.0 mg/kg/injection, schedule: Q01DX009 (ip), vehicle: saline): 104 % of control | T/C (endpoint: mean survival time, dose: 400.0 mg/kg/injection, schedule: Q04DX002 (ip), vehicle: saline): 108 % of control

CC1=COC(C)(C(=O)O)CC1 (configuration not stated)
T/C (endpoint: mean survival time, dose: 55.0 mg/kg/injection, schedule: Q01DX Z (ip), vehicle: methylcellulose (MC)): 100 % of control | T/C (endpoint: mean survival time, dose: 83.0 mg/kg/injection, schedule: Q01DX Z (ip), vehicle: methylcellulose (MC)): 86 % of control | T/C (endpoint: mean survival time, dose: 125.0 mg/kg/injection, schedule: Q01DX Z (ip), vehicle: methylcellulose (MC)): 102 % of control

CCC(C)(C)N
T/C (endpoint: mean survival time, dose: 100.0 mg/kg/injection, schedule: Q01DX001 (ip), vehicle: saline): 91 % of control | T/C (endpoint: mean survival time, dose: 200.0 mg/kg/injection, schedule: Q01DX001 (ip), vehicle: saline): 97 % of control | T/C (endpoint: mean survival time, dose: 400.0 mg/kg/injection, schedule: Q01DX001 (ip), vehicle: saline): 101 % of control

C/C(=N\N=C(N)N)c1ccc(NC(=O)Nc2ccc(/C(C)=N/N=C(N)N)cc2)cc1
T/C (endpoint: mean survival time, dose: 10.0 mg/kg/injection, schedule: Q01DX009 (ip), vehicle: saline): 109 % of control and 124 % of control | T/C (endpoint: mean survival time, dose: 18.0 mg/kg/injection, schedule: Q01DX009 (ip), vehicle: water): 187 % of control | T/C (endpoint: mean survival time, dose: 20.0 mg/kg/injection, schedule: Q01DX005 (ip), vehicle: saline): 157 % of control | T/C (endpoint: mean survival time, dose: 30.0 mg/kg/injection, schedule: Q01DX009 (ip), vehicle: carboxymethylcellulose (CMC)): 152 % of control | T/C (endpoint: mean survival time, dose: 30.0 mg/kg/injection, schedule: Q01DX009 (ip), vehicle: water): 188 % of control | T/C (endpoint: mean survival time, dose: 40.0 mg/kg/injection, schedule: Q01DX005 (ip), vehicle: saline): 150 % of control | T/C (endpoint: mean survival time, dose: 40.0 mg/kg/injection, schedule: Q01DX009 (ip), vehicle: water): 174 % of control | T/C (endpoint: mean survival time, dose: 50.0 mg/kg/injection, schedule: Q01DX009 (ip), vehicle: carboxymethylcellulose (CMC)): 189 % of control | T/C (endpoint: mean survival time, dose: 50.0 mg/kg/injection, schedule: Q01DX009 (ip), vehicle: water): 259 % of control | T/C (endpoint: mean survival time, dose: 65.0 mg/kg/injection, schedule: Q01DX009 (ip), vehicle: water): 167 % of control | T/C (endpoint: mean survival time, dose: 80.0 mg/kg/injection, schedule: Q01DX005 (ip), vehicle: saline): 177 % of control | T/C (endpoint: mean survival time, dose: 83.3 mg/kg/injection, schedule: Q01DX009 (ip), vehicle: carboxymethylcellulose (CMC)): 257 % of control | T/C (endpoint: mean survival time, dose: 83.3 mg/kg/injection, schedule: Q01DX009 (ip), vehicle: water): 243 % of control | T/C (endpoint: mean survival time, dose: 108.0 mg/kg/injection, schedule: Q01DX015 (ip), vehicle: saline): 172 % of control | T/C (endpoint: mean survival time, dose: 160.0 mg/kg/injection, schedule: Q01DX005 (ip), vehicle: saline): 226 % of control | T/C (endpoint: mean survival time, dose: 180.0 mg/kg/injection, schedule: Q01DX015 (ip), vehicle: saline): 207 % of control | T/C (endpoint: mean survival time, dose: 400.0 mg/kg/injection, schedule: Q01DX001 (ip), vehicle: other): 157 % of control | T/C (endpoint: mean survival time, dose: 600.0 mg/kg/injection, schedule: Q01DX001 (ip), vehicle: other): 188 % of control | T/C (endpoint: median survival time, dose: 50.0 mg/kg/injection, schedule: Q01DX009 (ip), vehicle: saline): 162 % of control | T/C (endpoint: median survival time, dose: 60.0 mg/kg/injection, schedule: Q03HX024 (ip), vehicle: water): 228 % of control | T/C (endpoint: median survival time, dose: 75.0 mg/kg/injection, schedule: Q03HX024 (ip), vehicle: water): 166 % of control | T/C (endpoint: median survival time, dose: 90.0 mg/kg/injection, schedule: Q03HX024 (ip), vehicle: water): 284 % of control | T/C (endpoint: median survival time, dose: 100.0 mg/kg/injection, schedule: Q01DX009 (ip), vehicle: saline): 215 % of control and 262 % of control | T/C (endpoint: median survival time, dose: 105.0 mg/kg/injection, schedule: Q03HX024 (ip), vehicle: water): 168 % of control | T/C (endpoint: median survival time, dose: 120.0 mg/kg/injection, schedule: Q03HX024 (ip), vehicle: water): 303 % of control | T/C (endpoint: median survival time, dose: 200.0 mg/kg/injection, schedule: Q01DX009 (ip), vehicle: saline): 260 % of control and 312 % of control
